Experimental findings from US10894808B2, “Polypeptide ligands specific for plasma kallikrein” (BicycleRD Limited, priority 2013, dated 2021) are described below.

Where two headings read alike, the source gives them in different places. *1 amine or outer side, *2 acyl side, *3 side chain or, on linkers, in order; H or OH if unused. Where a SMILES comes first, the peptide text is derived from it. Bridges are numbered along the chain shown (N, C = ends). [ ]: non-standard residue; d: D form. TBMB = c1c(C[*:1])cc(C[*:3])cc1C[*:2]; hArg = N=C(N)NCCCC[C@H](N)C(=O)O; Aze = O=C(O)[C@@H]1CCN1

A short description of series [1]: Plasma stability profiling Method #2 (95% plasma, MALDI-TOF), rat plasma. It counts as in vitro ADME. Particulars: qualitative, sampled up to 46 hrs. As to the method:
(§1) To obtain stability data more rapidly, peptides were also assessed in 95% plasma. Here, PBS was omitted, and a 1-5 mM peptide stock (in DMSO) was directly diluted into plasma (i.e. 2.5 μL stock into 47.5 μL plasma), giving a final concentration of 50 μM. 5 μL samples were taken at appropriate time points and frozen at −80° C. For analysis, the samples were defrosted, mixed with 25 μL of 3:3:1 acetonitrile:methanol:water, and centrifuged at 13 k for 5 min. 5 μL of the peptide-containing supernatant was aspirated and mixed with 30 mM ammonium bicarbonate in a 1:1 mixture of acetonitrile:H2O. 1 μL of this was then spotted on the MALDI plate and analysed as described above. As above, it should be noted that this is a qualitative assay serves to detect relative changes in plasma stability.

Series [2] in a line: Plasma stability profiling Method #2 (95% plasma, MALDI-TOF), human plasma. It counts as in vitro ADME. The following applies: qualitative, sampled up to 46 hrs. The method, then: as §1
In another series the target is T1, human plasma kallikrein (Homo sapiens, UniProt P03952).
T1 construct: purchased Stratech, UK
T1 sequence (P03952 391-638 limits assumed): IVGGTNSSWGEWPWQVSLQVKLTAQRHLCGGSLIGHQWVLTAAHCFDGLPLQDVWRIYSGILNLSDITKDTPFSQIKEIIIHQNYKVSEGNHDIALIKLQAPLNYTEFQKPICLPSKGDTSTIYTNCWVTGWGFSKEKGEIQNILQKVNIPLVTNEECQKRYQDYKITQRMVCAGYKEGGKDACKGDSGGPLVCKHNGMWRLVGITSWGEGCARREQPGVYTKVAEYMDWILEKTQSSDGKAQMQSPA
T1 sequence (P03952 20-390 partner limits assumed): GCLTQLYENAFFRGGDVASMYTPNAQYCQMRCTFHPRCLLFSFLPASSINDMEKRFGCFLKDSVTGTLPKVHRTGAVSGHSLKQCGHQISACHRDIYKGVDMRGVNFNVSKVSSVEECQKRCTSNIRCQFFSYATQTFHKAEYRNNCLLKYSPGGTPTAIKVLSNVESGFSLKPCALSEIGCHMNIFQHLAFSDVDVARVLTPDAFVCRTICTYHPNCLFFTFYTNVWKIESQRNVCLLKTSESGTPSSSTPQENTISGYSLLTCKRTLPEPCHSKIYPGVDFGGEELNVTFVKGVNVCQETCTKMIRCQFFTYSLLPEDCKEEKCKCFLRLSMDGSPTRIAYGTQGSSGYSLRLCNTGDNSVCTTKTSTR
In words: Functional enzyme assay, inhibition of human plasma kallikrein (Z-PheArg-AMC substrate). In kind it is biochemical. The method, then: (§2) Functional enzyme assays were conducted in 10 mM Tris HCl, 150 mM NaCl, 10 mM MgCl2, 1 mM CaCl2 and 1 mg/mL BSA (all Sigma UK) pH 7.4 at 25° C. in solid black 96 or 384 well plates. […] Release of AMC was measured using a Pherastar FS (BMG Labtech), excitation 360 nm, emission 460 nm. The rate of the linear phase of the reaction, typically 5 to 45 minutes, was calculated in MARS data analysis software (BMG labtech). The rate was then used to calculate the IC50 and Ki in Prism (GraphPad). A four parameter inhibition non-linear regression equation was used to calculate the IC50. […]
(§3) Peptides were dissolved as the TFA-salts in their powder form, and stock solutions were usually prepared in water. All solutions were centrifuged and filtered ([…] syringe filters) prior to absorption measurement at 280 nm. Extinction coefficients were calculated based on the Trp/Tyr content of the peptide, and that of TMB (the TMB core, when contained in a peptide, has an extinction coefficient of ˜300 M^−1 cm^−1).

For the next series, the target named is T2, rat plasma kallikrein (Rattus norvegicus, UniProt P14272).
T2 construct: polyhistidine tag followed by proTEV cleavage site (pro-peptide) (N, cleaved yes); made in house; host or cells: HEK-293 (suspension-adapted), pEXPR-IBA42 vector
T2 sequence (P14272 391-638 limits assumed): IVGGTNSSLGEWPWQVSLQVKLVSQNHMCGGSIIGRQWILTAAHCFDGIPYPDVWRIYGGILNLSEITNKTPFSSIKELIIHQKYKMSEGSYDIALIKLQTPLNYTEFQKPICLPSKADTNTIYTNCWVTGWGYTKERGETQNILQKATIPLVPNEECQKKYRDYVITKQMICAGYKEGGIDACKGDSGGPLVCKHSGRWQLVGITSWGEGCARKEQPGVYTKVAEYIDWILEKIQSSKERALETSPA
In words: Functional enzyme assay, inhibition of rat plasma kallikrein (Z-PheArg-AMC substrate). It counts as biochemical. As to the method: as §2, §3

A further series has as its target rabbit kallikrein (Oryctolagus cuniculus, UniProt G1T127). As to the kind of experiment: Functional enzyme assay, inhibition of rabbit kallikrein. In kind it is biochemical. The following applies: read-out: Rabbit (Ki). The method, then:
as §2, §3

For series [3], the target named is T3, biotinylated human plasma kallikrein (Homo sapiens, UniProt P03952).
T3 construct: The human kallikrein is non-recombinant and therefore the heavy chain is present; purchased Innovative Research, Novi, Mich., USA IHPKA; host or cells: from human plasma
T3 sequence (P03952 391-638 limits assumed): as the sequence (P03952 391-638 limits assumed) above
T3 sequence (P03952 20-390 partner limits assumed): as the sequence (P03952 20-390 partner limits assumed) above
As to the kind of experiment: Homogeneous plate-based screening assay of TBMB-cyclised phage clones (signal:background). In kind it is binding. The method, then: Assay of binding of individual clones: Library transformant colonies were picked at random and grown as individual cultures in 2TY broth containing selective antibiotic. The picked colonies were DNA-sequenced using a QIAgen PyroMark Q96 DNA sequencer to reveal the amino-acid substitution present in each clone. Where isolated, a clone of each unique substitution was assayed for human plasma kallikrein binding as follows. The phage-containing supernatant was harvested from the culture and phage were cyclised with tris bromomethyl benzene (TBMB) based on the methods of Heinis et al (Nature Chemical Biology vol. 5 pp 502-507 (2009)). The purified phage from this process were assayed for binding to biotinylated human plasma kallikrein using a homogeneous plate-based binding assay; assay read-out measured on a BMG Labtech Pherastar FS plate reader. The quantitative binding data from triplicate assay samples was averaged (mean) and expressed as signal:background (where background was a sample assayed with no target material). The signal:background was expressed as a % of the parallel parent sample. Error bars denote standard deviation of the mean. Assays shown are representative of at least 2 independent experiments. The assay data was correlated with the peptide sequences. Substitutions marked in grey were not tested (a clone was not isolated from the random library sampling). A sample of a non-binding (arbitrary) bicycle was assayed in parallel to illustrate the assay baseline.
Assay of binding of individual clones: Library transformant colonies, or selection output colonies, were picked and grown as individual cultures in 2TY broth containing selective antibiotic. The picked colonies were DNA-sequenced using a QIAgen PyroMark Q96 DNA sequencer to reveal the amino-acid substitution present in each clone, and were assayed for human plasma kallikrein binding as follows. The phage-containing supernatant was harvested from the culture and phage were cyclised with tris-bromomethylbenzene (TBMB) based on the methods of Heinis et al (Nature Chemical Biology vol. 5 pp 502-507 (2009)). The purified phage from this process were assayed for binding to biotinylated human plasma kallikrein using a homogeneous plate-based binding assay; assay read-out measured on a BMG Labtech Pherastar FS plate reader. The quantitative binding data from duplicate assay samples was averaged (mean) and expressed as signal:background. Assay data shown is representative of at least 2 independent experiments. The assay data was correlated with the peptide sequences.

The nature of series [4]: Aqueous solubility (qualitative). In kind it is physicochemical. The following applies: in words.
A short description of series [5]: Intravenous pharmacokinetics in rat. Particulars: in vivo; text b258, rat, iv 5 mg/kg. In kind it is in vivo. As to the method:
Peptides used for the pharmacokinetic studies in Example 4 were lyophilised from 10 mM HCl in water 3 times to afford the hydrochloride salts of the compounds. Solutions were dosed by intravenous bolus at 1 mg/mL in 50 mM Hepes pH 7.0, 5% glycerol, 1.9% DMSO for two compounds (Ac-(06-550) Aze3 HArg5 Sar3-(D-Arg2)) and (06-259-02)-Sar3-(D-Arg2)) at 5 mg/kg in Spraguely Dawely rats. Serial blood samples (˜0.2 mL) were taken into EDTA tubes at the indicated time points, and plasma was separated by centrifugation, and frozen at −20 C for analysis. Employing standard bioanalytical techniques, plasma samples were then analysed and quantified for parent remaining compound using a Waters, Xevo TQS LC-MS. PK parameters were determined using the software package PK Solutions 2.0 from Summit Research Services.
Peptides Ac-(06-550)-Sar3-(D-Arg)2Aze3 HArg5 (which contains the stabilising and affinity enhancing modifications Aze3 and HArg5, and a solubilising C-terminal extension Sar3-(D-Arg)2) (SEQ ID NO: 98) and Ac-(06-259-02)-Sar3-(D-Arg)2 were selected for pharmacokinetic assessment in rat. Peptides were injected intravenously in buffered solution at 1 mg/mL at 5 mg/kg Sprague Dawley rats, and blood was sampled and analysed for peptide concentrations at a number of time points post injection.

For series [6], the system named is carrageenan-induced paw oedema. In words: Carrageenan-induced paw oedema in rat. It counts as in vivo. Particulars: peptides 15 mg/kg ip, indomethacin 5 mg/kg ip, paw volume at 1, 2, 4, 6 h, p<0.001. The method, then: In this analysis, peptide Ac-(06-259-02)-Sar3-(D-Arg)2 (referred to in this study as Bicycle 3; see Example 2 herein) was assessed comparatively against the peptide Ac-(06-34-18) Phe2 Aze3 Tyr4 HArg5 Ala(ψCH2NH)6 (referred to in this study as Bicycle 2 and which is disclosed in Table 26b and FIG. 22 of PCT/EP2014/057440). Inflammation was induced in male Sprague-Dawley rats (n=10 per group) by injection of 100 μL of 1% carrageenan solution in the subplantar region of the right hind paw. Animals received treatment with the peptides and indomethacin according to Table 10:
At 1, 2, 4 and 6 hours after carrageenan administration, paw volume was measured by water displacement method. Statistical analysis was conducted using 2-way ANOVA with repeated measures (GraphPad Prism).

Where [7] appears, read: Table 3, 06-254 affinity-matured library.

Chain of rabbit kallikrein (G1T127 20-629): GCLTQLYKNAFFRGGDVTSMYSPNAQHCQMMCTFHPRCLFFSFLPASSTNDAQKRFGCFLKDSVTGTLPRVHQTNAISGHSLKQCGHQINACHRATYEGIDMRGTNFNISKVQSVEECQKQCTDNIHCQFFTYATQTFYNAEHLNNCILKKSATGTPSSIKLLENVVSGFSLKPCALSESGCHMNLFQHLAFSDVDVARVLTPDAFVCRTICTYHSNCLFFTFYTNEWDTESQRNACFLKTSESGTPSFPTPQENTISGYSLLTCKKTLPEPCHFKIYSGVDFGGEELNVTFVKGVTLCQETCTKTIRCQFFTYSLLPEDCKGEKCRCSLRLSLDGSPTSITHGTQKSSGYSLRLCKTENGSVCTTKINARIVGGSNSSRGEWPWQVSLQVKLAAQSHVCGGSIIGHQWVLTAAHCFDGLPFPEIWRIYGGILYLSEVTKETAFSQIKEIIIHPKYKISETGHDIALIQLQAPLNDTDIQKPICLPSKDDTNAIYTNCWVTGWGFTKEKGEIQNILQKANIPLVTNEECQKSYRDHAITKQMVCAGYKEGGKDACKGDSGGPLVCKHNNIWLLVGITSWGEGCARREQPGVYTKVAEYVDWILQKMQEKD

Regarding `CC(C)C[C@@H]1NC(=O)[C@H](CC(=O)O)NC(=O)[C@H](CCC(N)=O)NC(=O)[C@H](Cc2c[nH]cn2)NC(=O)[C@H](CC(C)C)NC(=O)[C@@H]2CSCc3cc(cc(c3)CSC[C@H](N)C(=O)N[C@@H](CO)C(=O)N[C@@H](Cc3c[nH]c4ccccc34)C(=O)N3CCC[C@H]3C(=O)N[C@@H](C)C(=O)N[C@@H](CCCNC(=N)N)C(=O)N2)CSC[C@@H](C(N)=O)NC1=O` [06-34-18, reference compound] (H-CSWPARCLHQDLC-NH2; linker 1-7-13 via TBMB; N-terminus and C-terminus assumed), in series [1], the “comparative stability in rat plasma” value was “largely disappeared”. For the same compound, the “comparative stability in human plasma” value in [2] is “largely disappeared”.
As to `CC[C@H](C)[C@@H]1NC(=O)[C@H]([C@@H](C)O)NC(=O)[C@H](C(C)C)NC(=O)[C@H](CC(C)C)NC(=O)[C@H](CC(=O)O)NC(=O)[C@@H]2CSCc3cc(cc(c3)CSC[C@@H](C(=O)N[C@@H](C)C(N)=O)NC(=O)[C@H](CO)NC1=O)CSC[C@H](NC(=O)[C@H](C)N)C(=O)N[C@@H](CCCCN)C(=O)N[C@@H](CC(N)=O)C(=O)N[C@@H](Cc1ccc(O)cc1)C(=O)N[C@@H](Cc1c[nH]c3ccccc13)C(=O)N[C@@H](CC(N)=O)C(=O)N1CCC[C@H]1C(=O)N2` [06-254] (H-ACKNYWNPCDLVTISCA-NH2; linker 2-9-16 via TBMB; N-terminus assumed), the Ki was determined as 0.0053 µM at human plasma kallikrein (Table 1, synthetic peptides, read-out: Human (Ki)); 0.0425 µM at rat plasma kallikrein (Table 1, synthetic peptides, read-out: Rat (Ki)); 0.28 µM at rabbit kallikrein (Table 1, synthetic peptides); 0.28 µM on rabbit kallikrein (Table 5). Besides, in series [3] (setting [7]), the “S:B (Signal:Background)” value is on record as 23.48.
Regarding `CC[C@H](C)[C@@H]1NC(=O)[C@H](CC(=O)O)NC(=O)[C@@H]2CCCN2C(=O)[C@H](Cc2ccc(O)cc2)NC(=O)[C@H](Cc2ccc(O)cc2)NC(=O)[C@H](C(C)C)NC(=O)[C@@H]2CSCc3cc(cc(c3)CSC[C@H](N)C(=O)N[C@@H](CO)C(=O)N[C@@H](Cc3ccccc3)C(=O)N3CC[C@H]3C(=O)N[C@@H](Cc3ccc(O)cc3)C(=O)N[C@@H](CCCCNC(=N)N)C(=O)N2)CSC[C@@H](C(N)=O)NC1=O` [06-550 Aze3 HArg5, -Ci-S-F-[Aze]-Y-[hR]-Cii-V-Y-Y-P-D-I-Ciii-] (H-CSF[Aze]Y[hArg]CVYYPDIC-NH2; linker 1-7-14 via TBMB; N-terminus and C-terminus assumed), the aqueous solubility entry in [4] is “significantly reduced aqueous solubility”.
`CC[C@H](C)[C@@H]1NC(=O)[C@H](CC(=O)O)NC(=O)[C@@H]2CCCN2C(=O)[C@H](Cc2ccc(O)cc2)NC(=O)[C@H](Cc2ccc(O)cc2)NC(=O)[C@H](C(C)C)NC(=O)[C@@H]2CSCc3cc(cc(c3)CSC[C@H](N)C(=O)N[C@@H](CO)C(=O)N[C@@H](Cc3ccccc3)C(=O)N3CCC[C@H]3C(=O)N[C@@H](Cc3ccc(O)cc3)C(=O)N[C@@H](CCCNC(=N)N)C(=O)N2)CSC[C@@H](C(N)=O)NC1=O` [06-550] (H-CSFPYRCVYYPDIC-NH2; linker 1-7-14 via TBMB; N-terminus assumed): the clearance in series [5] came to 17 mL/min/kg. In series [4], the aqueous solubility result is “significantly reduced aqueous solubility”.
In the case of `CC(C)C[C@@H]1NC(=O)[C@H](C)NC(=O)[C@H](CCC(=O)O)NC(=O)[C@H](CC(=O)O)NC(=O)[C@H](C)NC(=O)[C@@H]2CCCN2C(=O)[C@@H]2CSCc3cc(cc(c3)CSC[C@@H](C(=O)NCC(N)=O)NC1=O)CSC[C@H](NC(=O)[C@H](C)N)C(=O)N[C@@H](CO)C(=O)N[C@@H](CC(=O)O)C(=O)N[C@@H](CCCNC(=N)N)C(=O)N[C@@H](Cc1ccccc1)C(=O)N[C@@H](CCCNC(=N)N)C(=O)N[C@@H](CC(N)=O)C(=O)N2` [PK15, reference compound] (H-ACSDRFRNCPADEALCG-NH2; linker 2-9-16 via TBMB (inferred); N-terminus and C-terminus assumed), the Ki on human plasma kallikrein (text b212, read-out: Ki to human kallikrein) is around 0.0012 µM; at rat plasma kallikrein (text b212, read-out: Ki to rat kallikrein) it was around 0.5 µM. Further, the “S:B (Signal:Background)” value in series [3] (setting [7]) is reported as 14.05; in series [3] (Table 4, 06-259 affinity-matured library), 14.05.
For `COc1ccc2c(c1)c(CC(=O)O)c(C)n2C(=O)c1ccc(Cl)cc1` [indomethacin, reference compound], the “effect on paw swelling induced by carrageenan” value in series [6] was “highly significant reduction in paw swelling”.

For orientation: Ki means a measure of affinity in units of concentration, obtained from inhibition or displacement. For orientation: clearance means the volume of plasma or blood freed of the substance per unit of time.
